Measurements: patent US20050170485A1, “Culture having phenol oxidase-like activity” (priority 2002, published 2005)

Legend:
Format in all cases: biochemical
[1] = tested on: culture of Flammulina velutipes strain IFO 30601; assay: Decolorization / oxidative degradation / oxidative polymerization of pigments and lignin by the culture; conditions: for specificity of the culture compared with bilirubin oxidase from the genus Myrothecium: Table 3; for reaction of the substrate catalyzed by the culture (in words): neutral conditions; for Specific Activity, Culture: reaction pH 7.0, 25° C., without sign = degradation or decolorization, minus = polymerization activity
Excerpt: The decolorization activity on the respective dyes can be evaluated by measuring as the dye, Evans' Blue, Acid Blue 80, Remazol Brilliant Blue R and Acid Violet 17 in the step c) for their absorbance at 600 nm, 600 nm, 600 nm and 550 nm respectively. In addition, regarding the lignin, the oxidative degradation activity on the respective dyes can be evaluated by measuring the absorbance at 450 nm in the step c). The oxidative polymerization activity on the respective dyes can be evaluated by measuring as the dye, Indigo Carmine and Natural Orange 6 in the step c) for their absorbance at 600 nm and 450 nm respectively.
Next, chemical changes of various substrates generated by the action of the culture for the substrate specificity of the culture obtained in (2) of Example 1 was examined by determining a change in the absorbance of the buffer containing each substrate.
As the substrate, commercially available pigments (Evans' Blue, Acid Blue 80, Remazol Brilliant Blue R, Indigo Carmine, Acid Violet 17, Natural Orange) and lignin (trade name: Lignin Alkali, manufactured by Tokyo Kasei) were used.
(§1) Concretely, 950 μl of 105.3 mM sodium phosphate buffer (pH 7.0) containing a substrate adjusted to have a final concentration as shown in Table 2 was pre-incubated at 25° C. for 5 minutes. Next, 50 μl of the culture solution was added to the resulting product, and thereafter, the mixture was reacted in a cuvette. The absorbance for each substrate was determined at a measuring wavelength with a spectrophotometer (manufactured by Shimadzu Corporation, trade name: UV-2450). For the comparison, the examination was also made for bilirubin oxidase from a strain belonging to the genus Myrothecium in the same manner by replacing the above-mentioned buffer with 105.3 mM Tris-HCl buffer (pH 8.0).
(§2) Here, 1 U (unit) of the activity was defined as an amount for increasing the absorbance by 1 per one minute. In Table 3, a specific activity shown without a sign indicates degradation activity or decolorization activity, and a specific activity shown with—(minus) indicates polymerization activity.

[2] = target: T1, bilirubin oxidase from a strain belonging to the genus Myrothecium (Albifimbria verrucaria, UniProt Q12737); assay: Decolorization / degradation / polymerization of pigments and lignin by bilirubin oxidase (comparison); conditions: reaction pH 8.0; without sign = degradation or decolorization, minus = polymerization activity
T1 sequence (Q12737 39-572): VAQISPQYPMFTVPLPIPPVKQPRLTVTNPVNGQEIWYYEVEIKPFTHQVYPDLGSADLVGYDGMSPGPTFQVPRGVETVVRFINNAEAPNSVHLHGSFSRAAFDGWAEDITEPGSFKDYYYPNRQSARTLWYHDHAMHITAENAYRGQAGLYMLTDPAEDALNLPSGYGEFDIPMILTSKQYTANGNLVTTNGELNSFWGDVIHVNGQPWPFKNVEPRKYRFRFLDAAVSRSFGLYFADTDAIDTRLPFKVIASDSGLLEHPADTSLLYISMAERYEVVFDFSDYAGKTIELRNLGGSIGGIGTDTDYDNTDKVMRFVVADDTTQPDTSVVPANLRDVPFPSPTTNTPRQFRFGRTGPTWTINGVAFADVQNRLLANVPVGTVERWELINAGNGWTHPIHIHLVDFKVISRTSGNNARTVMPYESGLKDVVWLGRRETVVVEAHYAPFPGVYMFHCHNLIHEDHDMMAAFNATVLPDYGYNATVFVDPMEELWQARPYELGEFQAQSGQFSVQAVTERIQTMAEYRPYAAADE
Description: as §1, §2

[3] = tested on: laccase from Japanese lacquer; assay: Direct oxidation reaction by laccase (comparison); conditions: reaction pH 7.0; 2-chloro 1,4-phenylenediamine = 100
Description: (§3) Next, 20 μl of the above-mentioned culture solution was added to the resulting mixture. A change in absorbance at 490 nm, 450 nm or 405 nm was determined for the resulting product, depending on the substrate. Here, 1 U (unit) of the activity regarding the direct oxidative reaction was defined as an amount for increasing the absorbance by 1 per one minute.
(§4) In addition, for the comparison, the substrate specificities at pH 7.0 for laccase from Japanese lacquer and bilirubin oxidase from the strain belonging to the genus Myrothecium were also examined in the same manner.

[4] = target: T2, bilirubin oxidase from the strain of the genus Myrothecium (Albifimbria verrucaria, UniProt Q12737); assay: Oxidative coupling reaction with 4-aminoantipyrine by bilirubin oxidase (comparison); conditions: reaction pH 8.0, substrate 2.0 mM
T2 sequence (Q12737 39-572): T1 sequence (Q12737 39-572)
Description: (§5) Concretely, 190 μl of 105.3 mM phosphate buffer (pH 7.0) containing 0.4 μmol of a substrate and 4.0 μmol of 4-aminoantipyrine was pre-incubated in wells of a 96-well microplate [manufactured by Corning, Costor (registered trademark) 3368] at 25° C. for 1 minute. Next, 10 μl of the above-mentioned culture solution was added to the resulting mixture, and thereafter, the mixture was incubated for 1 hour. A change in absorbance at 490 nm or 450 nm was determined for the resulting product. One unit (U) of the activity regarding the oxidative coupling reaction was defined as an amount for increasing the absorbance by 1 per one minute.
In addition, for the comparison, the examination was made in the same manner for bilirubin oxidase from the strain of the genus Myrothecium except that the above-mentioned buffer was replaced with 105.3 mM Tris-HCl buffer (pH 8.0).

[5] = tested on: culture of Flammulina velutipes strain IFO 30601; assay: Direct oxidation reaction by the culture
Description: Further, the direct oxidation reaction of the culture obtained in the above-mentioned example was determined by using color development due to oxidative polymerization of a substrate generated by the direct action of the culture of the present invention on the substrate as an index.
As the substrates, there were used diaminophenolic compounds (2-chloro 1,4-phenylenediamine, p-phenylenediamine, 2,5-diaminotoluene, N-phenyl-p-phenylenediamine, toluylene-3,4-diamine, m-phenylenediamine), aminophenolic compounds (o-aminophenol, m-aminophenol, 5-amino-o-cresol, p-aminophenol, p-methylaminophenol), and phenolic compounds (2,6-dimethoxyphenol, catechol, resorcinol, hydroquinone, pyrogallol, gallic acid, propyl gallate, 1-naphthol, […], 2,3,4-trihydroxybenzophenone, 2,3,4,4-tetrahydroxybenzophenone). As to a substrate hardly soluble in water, there was used one obtained by dissolving the substrate in a small amount of dimethyl sulfoxide and diluting the resulting solution with deionized distilled water to a desired concentration. In Table 6, %” indicates volume/volume %.
as §3, with “Concretely, 180 μl of 0.89 mM sodium phosphate buffer (pH 7.0) containing […] substrate was pre-incubated in wells of a 96-well microplate [manufactured by Corning, Costor (registered trademark) 3368] at 25° C. for 1 minute. Next,” for “Next,”

[6] = target: T3, bilirubin oxidase from the strain belonging to the genus Myrothecium (Albifimbria verrucaria, UniProt Q12737); assay: Direct oxidation reaction by bilirubin oxidase (comparison); parameters: concentration or dose not given beside the values; conditions: reaction pH 7.0; 2-chloro 1,4-phenylenediamine = 100
T3 sequence (Q12737 39-572): T1 sequence (Q12737 39-572)
Description: as §3, with “Concretely, 180 μl of 0.89 mM sodium phosphate buffer (pH 7.0) containing […] substrate was pre-incubated in wells of a 96-well microplate [manufactured by Corning, Costor (registered trademark) 3368] at 25° C. for 1 minute. Next,” for “Next,”
as §4
The relative activity (%) for each substrate is shown in Table 7, in which the measured value for a case where a representative chemical dye 2-chloro 1,4-phenylenediamine was used as a substrate is 100.

[7] = tested on: culture of Flammulina velutipes strain IFO 30601; assay: Oxidative coupling reaction with 4-aminoantipyrine by the culture
Description: Next, the oxidative coupling reaction of the culture obtained in (2) in Example 1 mentioned above was determined by using color development as an index by the oxidative condensation of the substrate (hydrogen donor) with 4-aminoantipyrine, catalyzed by the culture of the present invention.
As the hydrogen donors, there were used phenolic compounds (phenol, 2-methoxyphenol, 2,6-dimethoxyphenol, catechol, resorcinol, hydroquinone, pyrogallol, gallic acid, propyl gallate, 1-naphthol, catechin), aminophenolic compounds (o-aminophenol, m-aminophenol, p-aminophenol), diaminophenolic compounds (o-phenylenediamine, m-phenylenediamine, p-phenylenediamine), and heterocyclic compounds (5-hydroxyindole, 2,6-diaminopyridine).
The above-mentioned culture solution was added to a reaction system containing 4-aminoantipyrine and an optional hydrogen donor. Thereafter, the activity of the culture of the present invention was assayed by determining a change in absorbance at 490 nm for the phenolic compound, the diaminophenolic compound and the heterocyclic compound, or determining a change in absorbance at 450 nm for the aminophenolic compound. As to a substrate hardly soluble in water, there was used one obtained by dissolving the substrate in a small amount of dimethyl sulfoxide and diluting the resulting solution with deionized water to a desired concentration. In Table 4, DMSO is an abbreviation for dimethyl sulfoxide.
as §5

[8] = tested on: culture of Flammulina velutipes strain IFO 30601; assay: Substrate specificity of the culture (phenol oxidase-like activity, Table 1); conditions: pH 7.0; determined wavelength per substrate (Table 1)
[9] = pH 7.0, relative activities of Table 7

Row | SMILES | specificity of the culture compared with bilirubin oxidase from the genus Myrothecium [1] | reaction of the substrate catalyzed by the culture (in words) [1] | Specific Activity, Culture [1] [U/mg Protein] | Specific Activity, Bilirubin Oxidase from Strain Belonging to Genus Myrothecium [2] [U/mg Protein] | other results
1 | Nc1c(S(=O)(=O)[O-])cc(Nc2cccc(S(=O)(=O)CCOS(=O)(=O)[O-])c2)c2c1C(=O)c1ccccc1C2=O.[Na+].[Na+] [Remazol Brilliant Blue R] | significantly differs | strongly catalyzed | 0.97 | −0.18 | 
2 | O=C1C=C(O)C(=O)c2ccccc21 [Natural Orange 6] |  | oxidative polymerization reaction | −0.18 | −0.11 | 
3 | O=C1/C(=C2\Nc3ccc(S(=O)(=O)[O-])cc3C2=O)Nc2ccc(S(=O)(=O)[O-])cc21.[Na+].[Na+] [Indigo Carmine] | significantly differs | oxidative polymerization reaction | −0.22 | 0.46 | 
4 | CCN(CC)c1ccc(C(=C2C=CC(=[N+](CC)Cc3cccc(S(=O)(=O)[O-])c3)C=C2)c2ccc(N(CC)Cc3cccc(S(=O)(=O)[O-])c3)cc2)cc1.[Na+] [Acid Violet 17] | significantly differs | oxidative decolorization reaction | 0.12 | −0.40 | 
5 | Cc1cc(C)c(S(=O)(=O)[O-])c(C)c1Nc1ccc(Nc2c(C)cc(C)c(S(=O)(=O)[O-])c2C)c2c1C(=O)c1ccccc1C2=O.[Na+].[Na+] [Acid Blue 80] |  |  | 0.30 | 0.39 | 
6 | Cc1cc(-c2ccc(/N=N/c3ccc4c(S(=O)(=O)[O-])cc(S(=O)(=O)[O-])c(N)c4c3O)c(C)c2)ccc1/N=N/c1ccc2c(S(=O)(=O)[O-])cc(S(=O)(=O)[O-])c(N)c2c1O.[Na+].[Na+].[Na+].[Na+] [Evans' Blue] |  |  | 0.32 | 1.22 | 
7 | COc1cccc(OC)c1O [2,6-Dimethoxyphenol] |  |  |  |  | Relative Activity, Laccase from Japanese Lacquer (direct oxidation) [3]: 21%; Specific Activity, Bilirubin Oxidase from Strain Belonging to Genus Myrothecium (oxidative coupling with 4-aminoantipyrine) [4]: 12.0 U/mg Protein; activity of the culture for the substrate in words, direct oxidation reaction ([5]; pH 7.0): high activity; activity of the culture compared with bilirubin oxidase from the genus Myrothecium, direct oxidation [5, 9]: even higher activity; activity of the culture compared with laccase from Japanese lacquer, direct oxidation [5, 9]: even higher activity; Relative Activity, Culture (direct oxidation) ([5]; reaction pH 7.0, 2-chloro 1,4-phenylenediamine = 100): 250%; Relative Activity, Bilirubin Oxidase from Strain Belonging to Genus Myrothecium (direct oxidation) [6]: 69%; activity of the culture for the substrate in words, oxidative coupling reaction ([7]; pH 7.0): especially high activity; Specific Activity, Culture (oxidative coupling with 4-aminoantipyrine) ([7]; reaction pH 7.0, 25° C., substrate 2.0 mM): 18.1 U/mg Protein; U (activity of the culture on the substrate) [8]: 0.830 U
